Laboratory results reported in patent US5482954A, “Signal transduction inhibitor triazole and diazole compounds” (priority 1994, dated 1996).
Read-outs that look alike come from different tables or passages of the source.

Columns and labels:
[1] = test system: MDA-231 human breast cancer cells; assay: AMF-stimulated cell motility; format: cell-based; conditions: overnight exposure; data not shown
A2058 and 5R cells = assay: Reversibility of inhibition of tumor cell adhesion; format: cell-based; conditions: for activity at 1 µg/mL / activity at 5 µg/mL: Homo sapiens, read-out: Adhesion (% of control)
Experimental: An adhesion assay was developed using tissue culture plastic petri dishes as the substrate. Aliquots of cells treated similarly to those in the cell motility assay were plated in triplicate onto the dishes and incubated for 90 rain at 37° C. Cells which were either poorly adherent or nonadherent were gently washed off with PBS. The remaining cells were stained with Diff Quik™ (from Baxter Scientific Products, McGaw Park. Ill., USA). Adherence was quantitated using laser densitometry and values were calculated as a percentage of the control adherence.
As with cell motility, the effect of compound 1 on cell adhesion is reversible. A2058 and 5R cells were treated as above for testing the reversibility of cell motility. The resulting "treated" cells (±), "washout" cells (±), and "control" cells were then subjected to the adhesion assay.

A2058 cells [2] = assay: [3H]thymidine incorporation; format: cell-based, human; conditions: 0-10 μg/mL, 24 hr
Experimental: (§1) Proliferation: Two independent methods were used to determine the effect of various compounds on cellular proliferation. The first method utilized [^3 H]thymidine labelling and was performed using A2058, 5R, OVCAR3, and MDA-231 cells. Because the potential effect of compound 1 on thymidine metabolism was unknown, a clonogenic assay was also used. This assay utilized crystal violet nuclear staining.
(§2) For the thymidine incorporation assay, an initial aliquot of 15,000 cells was plated in 96 well plates. The cells were grown to subconfluence, serum-starved, then fed with serum-containing media to which incremental doses of compound 1 (0-10 μg/mL) were added. After 24 hr, the cells were pulsed with [^3 H]thymidine (0.5 μCi/well) for 2 hr. Trichloroacetic acid was added to precipitate […] [^3 H]thymidine. After removal, ice cold ethanol/diethyl ether was added to precipitate cellular nucleic acids. The residue was solubilized with 0.2M NaOH and [^3 H]thymidine incorporation was determined by liquid scintillation counting. Inhibition of thymidine uptake was calculated as a percent of untreated control cell incorporation of labelled thymidine. As FIG. 4 indicates, de novo DNA synthesis was inhibited in all of the tumor cell lines. Maximal inhibition (80%) was found with the 5R cells.

MDA-231 cells = assay: [3H]thymidine incorporation; format: cell-based, human; conditions: 0-10 μg/mL, 24 hr
Experimental: as §1, §2

OVCAR3 cells [3] = assay: [3H]thymidine incorporation; format: cell-based, human; conditions: 0-10 μg/mL, 24 hr
Experimental: as §1, §2

T24 (EJ) bladder = assay: Growth of tumor cell lines; format: cell-based; conditions: T-24 human bladder cancer with activated H-ras
Experimental: In one study, the cells were continuously exposed to 20 μM compound 1, and growth inhibition was measured. In a second study, cell lines which only grow in suspension were plated in 24 well plates (50,000 cells/well) and were incubated with increasing concentrations of compound 1. After 72 hr in culture, the cells were harvested, centrifuged,resuspended in a small volume. The number of remaining cells and their viability was determined using a hemocytometer.

A2058 cells [4] = assay: Proliferation of A2058 cells (monolayer growth, crystal violet); format: cell-based, human
Experimental: For the clonogenic assay, aliquots of 50,000 cells per well (24 well plates) were grown under standard tissue culture conditions in the presence of increasing doses or test compound (0-10 μg/mL) or vehicle control. After 96 hr, the cells were gently washed with PBS, fixed, and stained with 0.5% crystal violet nuclear stain in 20% methanol. Excess stain was removed with tap water and bound stain was eluted with an equal volume solution of 01N sodium citrate (pH 4.2) and absolute ethanol. Optical density (O.D.) of eluted crystal violet stain was determined at 540 nm. The results of dose-dependent inhibition of tumor cell proliferation by compound 1 are shown in FIG. 5, in which the data are expressed as percent of untreated control cell proliferation for each cell type. The degree of inhibition varied with the cell type and was maximal (76%) for the A2058 cell line.
A2058 human melanoma cells were used to test the effect of compounds 1 and 3-25 on cellular proliferation. The cells were cultured in the presence of the test compounds (10 μM) for 96 hr. fixed and stained with crystal violet as described above. Growth inhibition was determined as a percent of control growth (using either DMSO or PEG-400 as the vehicle) for each compound. Each experiment was run a minimum of three times and the average of the results for each compound is provided in Table H and in FIGS. 20A and 20B.

OVCAR3 cells [5] = assay: Colony formation (soft agar); format: cell-based; conditions: Homo sapiens, OVCAR-3
Experimental: Colony formation: Compound 1 was evaluated at three concentrations for inhibition of colony formation in both the A2058 and OVCAR3 cell lines. Colony number was determined in triplicate and compared to the vehicle control run on each 24 well plate to provide a percent. Colonies greater than 60 cells were counted at 100× under phase contrast. […] In a second study, selected compounds were evaluated for their effect on density-independent growth of the A2058 cell line in soft agar. Percent inhibition was determined over triplicate experiments involving three log molar concentrations of the test compound.

[6] = test system: OVCAR3 human ovarian cancer; assay: Survival after intraperitoneal treatment; format: in vivo, nude mice; conditions: 50 mg/kg/d ip
From the text: This example illustrates the effect of compound 1 on the survival of nude mice. The mice had been intraperitoneally injected with OVCAR3 human ovarian cancer cells followed, after three weeks, by intraperitoneal injection of 1.
The OVCAR3 human ovarian cancer animal model accurately approximates the clinical presentation of stage III-IV ovarian cancer of peritoneal carcinomatosis. Untreated, OVCAR3 tumor is lethal to nude mice.
Six-week-old nude mice were inoculated intraperitoneally with 3.4×10^7 OVCAR3 human ovarian cancer cells. After a three week period, all animals had grossly distended abdomens due to OVCAR3 ascites. Two groups of animals (four each) were paired for relative severity of ascites and treatment was initiated. Compound 1, 50 mg/kg/d in 60% DMSO (200 μL aliquot) or a vehicle alone, was administered via daily intraperitoneal injection. Overall survival from start of treatment was the study endpoint. Relative survival improvement was calculated as mean treatment group survival divided by mean control group survival.

cell adhesion to laminin = assay: Cell adhesion to laminin; format: cell-based; conditions: data not shown
Experimental: Cells were preincubated with compound 1 (0.03-10 μg/mL) for periods of 2 to 48 hr prior to the adhesion assay. In addition, compound 1 remained present during the assay. […] Maximal inhibition of adhesion was observed following overnight exposure of the cells to compound 1.

[7] = test system: L-type voltage gated calcium channels; conditions: Hupe, et al.; cited from earlier work
[8] = test system: signal transduction pathways (calcium influx, release of arachidonic acid, generation of inositol phosphates); conditions: cited from earlier work
[9] = oral, nude mice; cited from earlier work

NC(=O)c1nnn(Cc2cc(Cl)c(C(=O)c3ccc(Cl)cc3)c(Cl)c2)c1N [Compound 1]
motile response to AMF [1]: inhibited | reversibility of adhesion inhibition (A2058 and 5R cells): reversible | activity at 1 µg/mL (A2058 and 5R cells; A2058, 1 μg/mL (+/-)): 106% | activity at 1 µg/mL (A2058 and 5R cells; A2058, 1 μg/mL (-/+)): 33% | activity at 5 µg/mL (A2058 and 5R cells; A2058, 5 μg/mL (+/-)): 96% | activity at 5 µg/mL (A2058 and 5R cells; A2058, 5 μg/mL (-/+)): 37% | inhibition of de novo DNA synthesis (A2058 cells [2]): inhibited | inhibition of de novo DNA synthesis (MDA-231 cells): inhibited | inhibition of de novo DNA synthesis (OVCAR3 cells [3]): inhibited | inhibition of proliferation (T24 (EJ) bladder): inhibited proliferation | dose dependent inhibition of proliferation (A2058 cells [4]; FIG. 20A, monolayer growth): Dose dependent inhibition of proliferation | activity at 10 µM (A2058 cells [4]; Homo sapiens, A2058, Table H, 10 μM, 96 hr, read-out: GROWTH (% OF CONTROL)): 36.4 ± 6% | inhibition at 2 µM (OVCAR3 cells [5]): > 70% | increase of overall survival [6]: 220% | overall survival from start of treatment ([6]; control 7.25±4.4 days): 16.0 ± 2.5 days | cell adhesion to laminin (cell adhesion to laminin): decreased cell adhesion | inhibition of L-type voltage gated calcium channels [7]: inhibit | inhibition of selected signal transduction pathways [8]: novel inhibitor of selected signal transduction pathways | toxicity to normal tissues including connective tissue, mucosal surfaces, and bone marrow [9]: no toxicity to normal tissues
